Results: patent US7488476B2, “B-cell epitope peptides of HSP 65, DNA encoding said peptides, antibodies directed against said peptides and the different uses thereof in the treatment of inflammatory and autoimmune diseases” (priority 1998, dated 2009)

Experiments:
rat immunoglobulins [1] = test: ELISA: antibodies of rat sera to Mycobacterial HSP 65 and its peptides; format: binding
rat immunoglobulins [2] = test: Dot-Blot of rat immunoglobulins with synthetic HSP peptides; format: binding
Protocol: Dot Blots assay: Antigens were dissolved in PBS and samples of 1 μg were adsorbed on Nitrocellulose paper. The paper was air-dried and incubated with BSA 1% in PBS for 20 min. to block non-specific binding. The samples were then washed in PBS-Tween 0.05% and incubated with rat sera diluted 1:100 in BSA-PBS, for 90 min. at room temp. Samples were washed and incubated with goat anti rat antibody conjugated to alkaline phosphatase diluted 1:1000 in BSA-PBS for 90 min. at RT. After re-washing the color reaction was developed by adding a mixture of BCIP-NBT (Sigma-Fast, Sigma) to the […] for 15 min. The reaction was stopped by the addition of tap water.
To define the epitopes recognized by the anti bacterial HSP antibodies, the inventors tested by Dot-Blot the interaction of immunoglobulins from naive young BN rats and post AA Lewis rats with 90 16-mer synthetic peptides of the Mycobacterial 65 KD HSP. Immunoglobulins from naive young Lewis rats served as control.
(§1) Immunoglobulins from naive Lewis and BN rats and post-AA Lewis rats were tested for binding to 38 synthetic 20-mer peptides of the mammalian HSP 60 by Dot-Blot. […] Quantitative analysis of this binding as well as the binding of immunoglobulins from four and nine month old Lewis rats confirmed the dot blot findings (Table 3).

rat immunoglobulins [3] = test: ELISA: antibodies of rat sera to mammalian HSP 60 and its peptides; format: binding
Protocol: (§2) ELISA: Flat-bottomed 96 well plates (Corning) were coated with mammalian HSP 60 or Mycobacterial HSP 65 (10 μg/ml) in carbonate buffer pH 9.6 overnight at 4° C.
After extensive washing with PBS-Tween 0.05% plates were incubated with blocking buffer containing 1% BSA (Sigma) for 60 min. at RT.
(§3) HSP peptides were attached to plates pre-treated with glutaraldehyde according to Kasprzyk et al.. Shortly, plates were coated with 100 μl/well of 5% w/v of glutaraldehyde in PBS for 1 hour at room temp. Plates were washed thoroughly with PBS and peptides (1 μg/100 μl) were added to each well, incubated overnight at 4° C. Plates were shaken dry and blocked with BSA 1% in PBS.
(§4) Plates coated with either HSP or peptides were washed again and incubated with rat sera diluted 1:100 with PBS-Tween 0.01% for 90 min. at room temp. After re-washing the plates were incubated with Goat anti rat IgG or IgM conjugated to alkaline-phosphatase for 60 min. at room temp. […] Optical density was measured photometrically at 405 nm.
Previous studies have shown that certain bacterial HSP peptides may trigger self HSP reactive T-cells with disease suppressive regulatory potential. To analyze the anti self-HSP antibody repertoire of these rats, the reactivity of Ig's from naive and post AA Lewis rats as well as from naive BN rats to whole mammalian HSP 60 was tested by ELISA.
as §1

Lewis rats [4] = test: Anti HSP antibodies in Lewis rats immunized with HSP peptides (ELISA); format: in vivo, rat; conditions: 100 μg peptide in PBS, 3 times IP; for Anti HSP Antibodies in Immunized Lewis Rats, Antigen 6: antigen peptide 6; for Anti HSP Antibodies in Immunized Lewis Rats, Antigen 7: antigen peptide 7
Protocol: as §2, §3, §4
Modulation of AA by mycobacterial and mammalian HSP peltides: HSP 65 derived peptides were tested for their ability to modulate the appearance or severity of AA in Lewis rats. Rats were immunized with 100 μg of each peptide in PBS, three weeks (3W), 2W and 1W before induction of AA by MT. Control rats received PBS. Rats were bled for testing antibody presence before injection of MT and 30 days post MT injection.
To test whether active immunization with bacterial or mammalian HSP peptides that are recognized by protective immunoglobulins can induce protection against AA, Lewis rats were immunized with the mycobacterial peptides 6, 7, 21, 31, 36, 45, 84, that bound antibodies from resistant Lewis rats (“protective” peptides), with some non-reactive mycobacterial HSP 65 peptides: peptide 26 (residues 151-166), 28 (residues 163-178) or peptide 70 (residues 415-430), and with the mammalian peptide 5.
Rats were injected 3 times intraperitoneally (IP), with one week intervals between injections before induction of AA with MT.

Lewis rats [5] = test: Modulation of Adjuvant Arthritis by pre-immunization with HSP peptides; format: in vivo, rat; conditions: 3 IP injections at one week intervals before AA induction with MT, FIG. 4
[6] = all of the rats immunoglobulins tested
[7] = BN and post-AA Lewis rats, not naive Lewis rats

31: 16-mer synthetic peptide of Mycobacterial HSP 65, residues 181-196, SEQ ID #11 [Peptide 31]
Antibodies to Mycobacterial HSP 65 Peptides (rat immunoglobulins [1]; strain BN-6w): + (0.16-0.45 = +) | Antibodies to Mycobacterial HSP 65 Peptides (rat immunoglobulins [1]; strain Lew-4m): − (<O. 15 = −) | Antibodies to Mycobacterial HSP 65 Peptides (rat immunoglobulins [1]; strain Lew-6w): − (<O. 15 = −) | Antibodies to Mycobacterial HSP 65 Peptides (rat immunoglobulins [1]; strain Lew-9m): ++ (0.46-0.75 = ++) | Antibodies to Mycobacterial HSP 65 Peptides (rat immunoglobulins [1]; strain Lew-Post AA): ++ (0.46-0.75 = ++)

63: 16-mer synthetic peptide of Mycobacterial HSP 65, residues 373-388, SEQ ID #16 [Peptide 63]
reaction with immunoglobulins in Dot-Blot (rat immunoglobulins [2]; [6]): reacted | Antibodies to Mycobacterial HSP 65 Peptides (rat immunoglobulins [1]; strain BN-6w): + (0.16-0.45 = +) | Antibodies to Mycobacterial HSP 65 Peptides (rat immunoglobulins [1]; strain Lew-4m): + (0.16-0.45 = +) | Antibodies to Mycobacterial HSP 65 Peptides (rat immunoglobulins [1]; strain Lew-6w): + (0.16-0.45 = +) | Antibodies to Mycobacterial HSP 65 Peptides (rat immunoglobulins [1]; strain Lew-9m): +++ (>0.75 = +++) | Antibodies to Mycobacterial HSP 65 Peptides (rat immunoglobulins [1]; strain Lew-Post AA): ++ (0.46-0.75 = ++)

M 30: 20-mer synthetic peptide of the mammalian HSP 60, residues 436-455 (IVLGGGCALLRCIPALDSLK)
reaction with immunoglobulins in Dot-Blot (rat immunoglobulins [2]; [7]): reacted | Antibodies to Mammalian HSP 60 Peptides (rat immunoglobulins [3]; strain BN-6w): + (0.16-0.45 = +) | Antibodies to Mammalian HSP 60 Peptides (rat immunoglobulins [3]; strain Lew-4m): − (<O. 15 = −) | Antibodies to Mammalian HSP 60 Peptides (rat immunoglobulins [3]; strain Lew-6w): − (<O. 15 = −) | Antibodies to Mammalian HSP 60 Peptides (rat immunoglobulins [3]; strain Lew-9m): ++ (0.46-0.75 = ++) | Antibodies to Mammalian HSP 60 Peptides (rat immunoglobulins [3]; strain Lew-Post AA): ++ (0.46-0.75 = ++)

40: 16-mer synthetic peptide of Mycobacterial HSP 65, residues 236-251, SEQ ID #13 [Peptide 40]
reaction with immunoglobulins in Dot-Blot (rat immunoglobulins [2]; [6]): reacted | Antibodies to Mycobacterial HSP 65 Peptides (rat immunoglobulins [1]; strain BN-6w): ++ (0.46-0.75 = ++) | Antibodies to Mycobacterial HSP 65 Peptides (rat immunoglobulins [1]; strain Lew-4m): + (0.16-0.45 = +) | Antibodies to Mycobacterial HSP 65 Peptides (rat immunoglobulins [1]; strain Lew-6w): + (0.16-0.45 = +) | Antibodies to Mycobacterial HSP 65 Peptides (rat immunoglobulins [1]; strain Lew-9m): ++ (0.46-0.75 = ++) | Antibodies to Mycobacterial HSP 65 Peptides (rat immunoglobulins [1]; strain Lew-Post AA): ++ (0.46-0.75 = ++)

59: 16-mer synthetic peptide of Mycobacterial HSP 65, residues 349-364, SEQ ID #15 [Peptide 59]
Antibodies to Mycobacterial HSP 65 Peptides (rat immunoglobulins [1]; strain BN-6w): + (0.16-0.45 = +) | Antibodies to Mycobacterial HSP 65 Peptides (rat immunoglobulins [1]; strain Lew-4m): − (<O. 15 = −) | Antibodies to Mycobacterial HSP 65 Peptides (rat immunoglobulins [1]; strain Lew-6w): − (<O. 15 = −) | Antibodies to Mycobacterial HSP 65 Peptides (rat immunoglobulins [1]; strain Lew-9m): − (<O. 15 = −) | Antibodies to Mycobacterial HSP 65 Peptides (rat immunoglobulins [1]; strain Lew-Post AA): +++ (>0.75 = +++)

45: 16-mer synthetic peptide of Mycobacterial HSP 65, residues 265-280, SEQ ID #14 [Peptide 45]
Antibodies to Mycobacterial HSP 65 Peptides (rat immunoglobulins [1]; strain BN-6w): + (0.16-0.45 = +) | Antibodies to Mycobacterial HSP 65 Peptides (rat immunoglobulins [1]; strain Lew-4m): + (0.16-0.45 = +) | Antibodies to Mycobacterial HSP 65 Peptides (rat immunoglobulins [1]; strain Lew-6w): − (<O. 15 = −) | Antibodies to Mycobacterial HSP 65 Peptides (rat immunoglobulins [1]; strain Lew-9m): + (0.16-0.45 = +) | Antibodies to Mycobacterial HSP 65 Peptides (rat immunoglobulins [1]; strain Lew-Post AA): ++ (0.46-0.75 = ++)

36: 16-mer synthetic peptide of Mycobacterial HSP 65, residues 211-226, SEQ ID #12 [Peptide 36]
Antibodies to Mycobacterial HSP 65 Peptides (rat immunoglobulins [1]; strain BN-6w): ++ (0.46-0.75 = ++) | Antibodies to Mycobacterial HSP 65 Peptides (rat immunoglobulins [1]; strain Lew-4m): + (0.16-0.45 = +) | Antibodies to Mycobacterial HSP 65 Peptides (rat immunoglobulins [1]; strain Lew-6w): − (<O. 15 = −) | Antibodies to Mycobacterial HSP 65 Peptides (rat immunoglobulins [1]; strain Lew-9m): + (0.16-0.45 = +) | Antibodies to Mycobacterial HSP 65 Peptides (rat immunoglobulins [1]; strain Lew-Post AA): +++ (>0.75 = +++)

VVLEKKWGAPTITNDG [Peptide 7]
Antibodies to Mycobacterial HSP 65 Peptides (rat immunoglobulins [1]; strain BN-6w): + (0.16-0.45 = +) | Antibodies to Mycobacterial HSP 65 Peptides (rat immunoglobulins [1]; strain Lew-4m): − (<O. 15 = −) | Antibodies to Mycobacterial HSP 65 Peptides (rat immunoglobulins [1]; strain Lew-6w): − (<O. 15 = −) | Antibodies to Mycobacterial HSP 65 Peptides (rat immunoglobulins [1]; strain Lew-9m): + (0.16-0.45 = +) | Antibodies to Mycobacterial HSP 65 Peptides (rat immunoglobulins [1]; strain Lew-Post AA): + (0.16-0.45 = +) | Anti HSP Antibodies in Immunized Lewis Rats, Antigen M5 (Lewis rats [4]): − (<O. 15 = −) | Anti HSP Antibodies in Immunized Lewis Rats, Antigen MT-HSP 65 (Lewis rats [4]): + (0.16-0.45 = +) | Anti HSP Antibodies in Immunized Lewis Rats, Antigen 6 (Lewis rats [4]): + (0.16-0.45 = +) | Anti HSP Antibodies in Immunized Lewis Rats, Antigen 7 (Lewis rats [4]): − (<O. 15 = −) | AA disease severity after pre-immunization (Lewis rats [5]): significant suppression of disease severity

84: 16-mer synthetic peptide of Mycobacterial HSP 65, residues 499-514, SEQ ID #17 [Peptide 84]
reaction with immunoglobulins in Dot-Blot (rat immunoglobulins [2]; Lewis rats immunized with CFA): reacted | Antibodies to Mycobacterial HSP 65 Peptides (rat immunoglobulins [1]; strain BN-6w): − (<O. 15 = −) | Antibodies to Mycobacterial HSP 65 Peptides (rat immunoglobulins [1]; strain Lew-4m): − (<O. 15 = −) | Antibodies to Mycobacterial HSP 65 Peptides (rat immunoglobulins [1]; strain Lew-6w): − (<O. 15 = −) | Antibodies to Mycobacterial HSP 65 Peptides (rat immunoglobulins [1]; strain Lew-9m): − (<O. 15 = −) | Antibodies to Mycobacterial HSP 65 Peptides (rat immunoglobulins [1]; strain Lew-Post AA): + (0.16-0.45 = +)

HSP 65: Recombinant HSP 65 of Mycobacterium Tuberculosis
Antibodies to Mycobacterial HSP 65 Peptides (rat immunoglobulins [1]; strain BN-6w): +++ (>0.75 = +++) | Antibodies to Mycobacterial HSP 65 Peptides (rat immunoglobulins [1]; strain Lew-4m): − (<O. 15 = −) | Antibodies to Mycobacterial HSP 65 Peptides (rat immunoglobulins [1]; strain Lew-6w): − (<O. 15 = −) | Antibodies to Mycobacterial HSP 65 Peptides (rat immunoglobulins [1]; strain Lew-9m): + (0.16-0.45 = +) | Antibodies to Mycobacterial HSP 65 Peptides (rat immunoglobulins [1]; strain Lew-Post AA): ++ (0.46-0.75 = ++)

TVIIEQSWGSPKVTKDGVTV (listed as Rattus norvegicus) [Peptide R5, mammalian HSP 60 peptide, residues 61-80]
reaction with immunoglobulins in Dot-Blot (rat immunoglobulins [2]; [7]): reacted | Anti HSP Antibodies in Immunized Lewis Rats, Antigen M5 (Lewis rats [4]): − (<O. 15 = −) | Anti HSP Antibodies in Immunized Lewis Rats, Antigen MT-HSP 65 (Lewis rats [4]): + (0.16-0.45 = +) | Anti HSP Antibodies in Immunized Lewis Rats, Antigen 6 (Lewis rats [4]): + (0.16-0.45 = +) | Anti HSP Antibodies in Immunized Lewis Rats, Antigen 7 (Lewis rats [4]): − (<O. 15 = −) | AA disease severity after pre-immunization (Lewis rats [5]): significant suppression of disease severity | Antibodies to Mammalian HSP 60 Peptides (rat immunoglobulins [3]; strain BN-6w): + (0.16-0.45 = +) | Antibodies to Mammalian HSP 60 Peptides (rat immunoglobulins [3]; strain Lew-4m): − (<O. 15 = −) | Antibodies to Mammalian HSP 60 Peptides (rat immunoglobulins [3]; strain Lew-6w): − (<O. 15 = −) | Antibodies to Mammalian HSP 60 Peptides (rat immunoglobulins [3]; strain Lew-9m): ++ (0.46-0.75 = ++) | Antibodies to Mammalian HSP 60 Peptides (rat immunoglobulins [3]; strain Lew-Post AA): +++ (>0.75 = +++)

21: 16-mer synthetic peptide of Mycobacterial HSP 65, residues 121-136, SEQ ID #10 [Peptide 21]
reaction with immunoglobulins in Dot-Blot (rat immunoglobulins [2]; Lewis rats immunized with CFA): reacted | Antibodies to Mycobacterial HSP 65 Peptides (rat immunoglobulins [1]; strain BN-6w): − (<O. 15 = −) | Antibodies to Mycobacterial HSP 65 Peptides (rat immunoglobulins [1]; strain Lew-4m): − (<O. 15 = −) | Antibodies to Mycobacterial HSP 65 Peptides (rat immunoglobulins [1]; strain Lew-6w): − (<O. 15 = −) | Antibodies to Mycobacterial HSP 65 Peptides (rat immunoglobulins [1]; strain Lew-9m): − (<O. 15 = −) | Antibodies to Mycobacterial HSP 65 Peptides (rat immunoglobulins [1]; strain Lew-Post AA): + (0.16-0.45 = +)
